In patent US8906953B2, “Pyrrolidine substitute flavones for the treatment of inflammatory disorders” (Piramal Enterprises Limited, priority 2010, dated 2014):

Key:
ICAM-1 = assay: TNF-α induced cell surface expression of ICAM-1 on HUVECs; type: cell-based; details: Homo sapiens, HUVEC; TNF-α (1 ng/mL) stimulated HUVECs, 4 hours, n=2
Description: The assay was designed as in reference, Transplantation, 1997, 63(5), 759-764, the disclosure of which is incorporated herein by reference for the teaching of the assay.
Human umbilical vein endothelial cells (HUVECs) were obtained from Cascade Biologics (Oregon-USA). Cells were cultured in M-200 medium (Cascade Biologics) supplemented with low serum growth supplements (LSGS) (Cascade Biologics), penicillin-G (100 U/mL), streptomycin (100 μg/mL) and amphotericin B (50 ng/mL) (GIBCO). […] After TNF-α stimulation (1 ng/mL) (R&D Systems (Minneapolis, Minn.)) for 4 hours at 37° C. in an atmosphere of 5% CO2, supernatants were harvested and assayed for the expression of ICAM-1 (intercellular cell adhesion molecules), whereas the expressions of VCAM-1 (vascular cell adhesion molecules) and E-selectin were evaluated after 6 hours of stimulation. […] To quantitatively measure the amount of cell surface expressions of ICAM-1, VCAM-1 and E-selectin, ELISA assay was performed using anti-ICAM-1 (clone BBIG-I1), anti-VCAM-1 (clone BBIG-V1), anti-E-selectin (clone BBIG-E4) antibodies, isotype control mouse IgG1 (clone 11711.11) and the secondary antibody (anti-mouse IgG-HRP antibody) which were procured from R&D Systems (Minneapolis, Minn., USA). […]

IL-6 = assay: LPS-induced IL-6 release from hPBMCs (ELISA); type: cell-based; details: Homo sapiens
Description: Cytokine production by lipopolysaccharides (LPS) in hPBMCs (human peripheral blood mononuclear cells) was measured as in reference, Physiol. Res. 2003, 52, 593-598, the disclosure of which is incorporated by reference for the teaching of the assay. Blood was collected from healthy donors into Potassium EDTA vacutainer tubes (BID vacutainer). The PBMC were isolated using gradient centrifugation in Histopaque-1077 solution (Sigma). Isolated PBMC were suspended in RPMI 1640 (Rosewell Park Memorial Institute) culture medium (Sigma-Aldrich Fine Chemicals, USA) containing 10% fetal bovine serum (FBS) (JRH, USA), 100 U/mL penicillin (Sigma Chemical Co. St Louis, Mo., USA) and 100 μg/mL streptomycin (Sigma Chemical Co. St Louis, Mo.). The cell concentration was adjusted to 1×10^6 cells/mL. The viability as determined by trypan blue dye exclusion was uniform Ly≧98%. The cell suspension (100 μL) was added to the wells of a 96-well culture plate. Following cell plating, 79 μL of the culture medium and 1 μL of various concentrations of test compounds (compounds of formula 1) (final concentration 0.001, 0.003, 0.005, 0.01, 0.025, 0.03, 0.05, 0.1, 0.25, 0.3 and 1 μM) dissolved in DMSO (dimethyl sulfoxide, Sigma, Mo., USA) were added to the cells. The final concentration of DMSO was adjusted to 0.5%. The vehicle (0.5% DMSO) was used as control. […]

[1] = system: arthritic (CIA) DBA/1J mice; assay: Collagen induced arthritis in mouse; type: in vivo; details: 50 mg/kg oral twice daily, 23 days
Description: The assay was designed as in reference, J. Exp. Med., 1985, 162, 637-646, the disclosure of which is incorporated herein by reference for the teaching of the assay.
Male DBA/1J mice (originally procured from Jackson Laboratories, USA), aged 8-10 weeks were immunized with an emulsion equivalent to 200 μg of type II collagen in Freund's Complete Adjuvant, injected intradermally at the base of the tail. A booster shot with the same emulsion was given 21 days later. A group of naïve mice was maintained alongside.
From day 23 to day 56, mice were examined daily once for the signs of rheumatoid arthritis, using the Articular Index and paw thickness as parameters. Articular Index scoring was performed employing the following criteria:
Mice with a minimum hind paw score of 2 were inducted into the study.
Mice were randomized into the various study groups and orally administered the vehicle (0.5% CMC, 1 ml/kg), test compound (compound of example 3, 50 mg/kg twice daily) and standard compound (Enbrel, 3 mg/kg, s.c., once daily). […] The dosing of the compounds was done for 23 days.
The following parameters were observed and recorded daily, • 1. Body weight • 2. Articular index • 3. Paw thickness in mm using a tension free caliper • 4. Any significant observation regarding the condition of the animal. […]
The results are graphically depicted in FIG. 3 (Articular index versus days of treatment) and FIG. 4 (Paw thickness versus days of treatment). Data obtained during the course of this study (articular index and paw thickness) was statistically evaluated by applying Mann-Whitney U test.
Mice were humanely euthanized and the hind paws were harvested from each animal, fixed in 10% neutral buffered formalin, decalcified in 5% formic acid and embedded in paraffin. Section […] were stained with either hematoxylin and eosin or safranin 0 and evaluated microscopically. Histopathological changes were scored as follows: mild (score=1), moderate (score=2) or severe (score=3) for the parameters of cellular infiltration, bone erosions and cartilage damage, graded separately. […]

IC50 (ICAM-1): 670 nM
IC50 (IL-6): 100 nM
SMILES: CN1CC[C@@H](c2c(O)cc(O)c3c(=O)cc(-c4ccc(C(F)(F)F)cc4Cl)oc23)[C@@H]1CO.Cl [Compound of example 3, (+)-trans-2-(2-Chloro-4-trifluoromethyl-phenyl)-5,7-dihydroxy-8-(2-hydroxymethyl-1-methyl-pyrrolidin-3-yl)-chromen-4-one hydrochloride]
Severity of disease by articular index and paw thickness [1]: trend towards ameriolation of the disease
Histopathological evaluation of hind paws ([1]; cellular infiltration, bone erosions, cartilage damage): potential anti-arthritic effect
